≈ marks a conversion by molar mass, not a printed value.
Columns and labels:
[1] = tested on: Mycobacterium tuberculosis; test: Antitubercular activity against Mycobacterium tuberculosis RCMB 010126 clinical isolate after 4 days by microplate alamar blue assay; format: functional; conditions: for MIC: Mycobacterium tuberculosis, RCMB 010126, 96 h
Escherichia coli [2] = test: Antibacterial activity against Escherichia coli RCMB 010052 assessed as diameter of zone inhibition after 24 hrs by agar well diffusion assay; format: functional
Escherichia coli [3] = test: Antibacterial activity against Escherichia coli RCMB 010052 after 24 hrs by serial dilution method; format: functional; conditions: RCMB 010052, 24 h
Aspergillus fumigatus = test: Antifungal activity against Aspergillus fumigatus RCMB 02568 assessed as diameter of zone inhibition after 48 hrs by agar well diffusion assay; format: functional
Candida albicans = test: Antifungal activity against Candida albicans RCMB 05036 after 24 hrs by serial dilution method; format: functional; conditions: RCMB 05036, 24 h
WI-38 = test: Cytotoxicity against human WI38 cells by MTT assay; format: cell-based
[4] = Selectivity index, ratio of IC50 for human WI38 cells to MIC for Mycobacterium tuberculosis RCMB 010126 clinical isolate; format: toxicity; conditions: read-out: Selectivity Index
HL-60(TB) = test: Growth inhibition of human HL-60(TB) cells assessed as cell growth at 10^-5 M incubated for 48 hrs by sulforhodamine B assay relative to control; format: cell-based; parameters: scale not given: the % may be the effect or the level left; conditions: 10 µM
RPMI-8226 = test: Growth inhibition of human RPMI8226 cells assessed as cell growth at 10^-5 M incubated for 48 hrs by sulforhodamine B assay relative to control; format: cell-based; parameters: scale not given: the % may be the effect or the level left; conditions: rpmi-8226, 48 h, 10 µM
EKVX = test: Growth inhibition of human EKVX cells assessed as cell growth at 10^-5 M incubated for 48 hrs by sulforhodamine B assay relative to control; format: cell-based; parameters: scale not given: the % may be the effect or the level left; conditions: 10 µM
HOP-92 = test: Growth inhibition of human HOP92 cells assessed as cell growth at 10^-5 M incubated for 48 hrs by sulforhodamine B assay relative to control; format: cell-based; parameters: scale not given: the % may be the effect or the level left; conditions: hop-92, 48 h, 10 µM
NCI-H226 = test: Growth inhibition of human NCI-H226 cells assessed as cell growth at 10^-5 M incubated for 48 hrs by sulforhodamine B assay relative to control; format: cell-based; parameters: scale not given: the % may be the effect or the level left; conditions: nci-h226, 48 h, 10 µM
COLO 205 = test: Growth inhibition of human COLO205 cells assessed as cell growth at 10^-5 M incubated for 48 hrs by sulforhodamine B assay relative to control; format: cell-based; parameters: scale not given: the % may be the effect or the level left; conditions: colo 205, 48 h, 10 µM
HCC 2998 = test: Growth inhibition of human HCC2998 cells assessed as cell growth at 10^-5 M incubated for 48 hrs by sulforhodamine B assay relative to control; format: cell-based; parameters: scale not given: the % may be the effect or the level left; conditions: hcc 2998, 48 h, 10 µM
HCT-15 = test: Growth inhibition of human HCT15 cells assessed as cell growth at 10^-5 M incubated for 48 hrs by sulforhodamine B assay relative to control; format: cell-based; parameters: scale not given: the % may be the effect or the level left; conditions: hct-15, 48 h, 10 µM
SF-268 = test: Growth inhibition of human SF268 cells assessed as cell growth at 10^-5 M incubated for 48 hrs by sulforhodamine B assay relative to control; format: cell-based; parameters: scale not given: the % may be the effect or the level left; conditions: sf-268, 48 h, 10 µM
SF-539 = test: Growth inhibition of human SF539 cells assessed as cell growth at 10^-5 M incubated for 48 hrs by sulforhodamine B assay relative to control; format: cell-based; parameters: scale not given: the % may be the effect or the level left; conditions: sf-539, 48 h, 10 µM
SNB-19 = test: Growth inhibition of human SNB19 cells assessed as cell growth at 10^-5 M incubated for 48 hrs by sulforhodamine B assay relative to control; format: cell-based; parameters: scale not given: the % may be the effect or the level left; conditions: snb-19, 48 h, 10 µM
SNB-75 = test: Growth inhibition of human SNB75 cells assessed as cell growth at 10^-5 M incubated for 48 hrs by sulforhodamine B assay relative to control; format: cell-based; parameters: scale not given: the % may be the effect or the level left; conditions: snb-75, 48 h, 10 µM
U-251 = test: Growth inhibition of human U251 cells assessed as cell growth at 10^-5 M incubated for 48 hrs by sulforhodamine B assay relative to control; format: cell-based; parameters: scale not given: the % may be the effect or the level left; conditions: u-251, 48 h, 10 µM
LOX IMVI = test: Growth inhibition of human LOXIMVI cells assessed as cell growth at 10^-5 M incubated for 48 hrs by sulforhodamine B assay relative to control; format: cell-based; parameters: scale not given: the % may be the effect or the level left; conditions: 10 µM
Malme-3M = test: Growth inhibition of human MALME-3M cells assessed as cell growth at 10^-5 M incubated for 48 hrs by sulforhodamine B assay relative to control; format: cell-based; parameters: scale not given: the % may be the effect or the level left; conditions: 10 µM
M14 = test: Growth inhibition of human M14 cells assessed as cell growth at 10^-5 M incubated for 48 hrs by sulforhodamine B assay relative to control; format: cell-based; parameters: scale not given: the % may be the effect or the level left; conditions: m14, 48 h, 10 µM
MDA-MB-435 = test: Growth inhibition of human MDA-MB-435 cells assessed as cell growth at 10^-5 M incubated for 48 hrs by sulforhodamine B assay relative to control; format: cell-based; parameters: scale not given: the % may be the effect or the level left; conditions: mda-mb-435, 48 h, 10 µM
SK-MEL-5 = test: Growth inhibition of human SK-MEL-5 cells assessed as cell growth at 10^-5 M incubated for 48 hrs by sulforhodamine B assay relative to control; format: cell-based; parameters: scale not given: the % may be the effect or the level left; conditions: sk-mel-5, 48 h, 10 µM
UACC-62 = test: Growth inhibition of human UACC62 cells assessed as cell growth at 10^-5 M incubated for 48 hrs by sulforhodamine B assay relative to control; format: cell-based; parameters: scale not given: the % may be the effect or the level left; conditions: uacc-62, 48 h, 10 µM
OVCAR-4 = test: Growth inhibition of human OVCAR4 cells assessed as cell growth at 10^-5 M incubated for 48 hrs by sulforhodamine B assay relative to control; format: cell-based; parameters: scale not given: the % may be the effect or the level left; conditions: ovcar-4, 48 h, 10 µM
OVCAR-5 = test: Growth inhibition of human OVCAR5 cells assessed as cell growth at 10^-5 M incubated for 48 hrs by sulforhodamine B assay relative to control; format: cell-based; parameters: scale not given: the % may be the effect or the level left; conditions: ovcar-5, 48 h, 10 µM
SK-OV-3 = test: Growth inhibition of human SKOV3 cells assessed as cell growth at 10^-5 M incubated for 48 hrs by sulforhodamine B assay relative to control; format: cell-based; parameters: scale not given: the % may be the effect or the level left; conditions: sk-ov-3, 48 h, 10 µM
786-0 = test: Growth inhibition of human 786-0 cells assessed as cell growth at 10^-5 M incubated for 48 hrs by sulforhodamine B assay relative to control; format: cell-based; parameters: scale not given: the % may be the effect or the level left; conditions: 786-0, 48 h, 10 µM
RXF 393 = test: Growth inhibition of human RXF393 cells assessed as cell growth at 10^-5 M incubated for 48 hrs by sulforhodamine B assay relative to control; format: cell-based; parameters: scale not given: the % may be the effect or the level left; conditions: rxf 393, 48 h, 10 µM
TK-10 = test: Growth inhibition of human TK10 cells assessed as cell growth at 10^-5 M incubated for 48 hrs by sulforhodamine B assay relative to control; format: cell-based; parameters: scale not given: the % may be the effect or the level left; conditions: tk-10, 48 h, 10 µM
PC-3 = test: Growth inhibition of human PC3 cells assessed as cell growth at 10^-5 M incubated for 48 hrs by sulforhodamine B assay relative to control; format: cell-based; parameters: scale not given: the % may be the effect or the level left; conditions: pc-3, 48 h, 10 µM
MDA-MB-231 = test: Growth inhibition of human MDA-MB-231 cells assessed as cell growth at 10^-5 M incubated for 48 hrs by sulforhodamine B assay relative to control; format: cell-based; parameters: scale not given: the % may be the effect or the level left; conditions: mda-mb-231, 48 h, 10 µM
[5] = tested on: Mycobacterium tuberculosis; test: Potency index, ratio of isoniazid MIC to compound MIC for antitubercular activity against Mycobacterium tuberculosis RCMB 010126 clinical isolate; format: functional
Staphylococcus aureus = test: Potency index, ratio of ciprofloxacin MIC to compound MIC for Staphylococcus aureus RCMB 010028; format: functional

CCOC(=O)c1sc(/N=C2\NC(=O)/C(=C3/C(=O)N(Cc4ccccc4)c4ccc(Cl)cc43)S2)nc1C
inhibition (INH) [1]: 75.32% | MIC [1]: 0.39 µg/mL (≈ 0.724 µM) | diameter of the inhibition zone (DIZ) (Escherichia coli [2]): 23.4 mm | MIC (Escherichia coli [3]): 0.98 µg/mL (≈ 1.82 µM) | diameter of the inhibition zone (DIZ) (Aspergillus fumigatus): 21.3 mm | MIC (Candida albicans): 1.95 µg/mL (≈ 3.62 µM) | IC50 (WI-38): 52.1 µg/mL (≈ 96.7 µM) | selectivity ratio [4]: 133 | Activity (HL-60(TB)): 105.41% | Activity (RPMI-8226): 99.02% | Activity (EKVX): 100.9% | Activity (HOP-92): 92.11% | Activity (NCI-H226): 94.7% | Activity (COLO 205): 101.47% | Activity (HCC 2998): 109.14% | Activity (HCT-15): 100.31% | Activity (SF-268): 93.91% | Activity (SF-539): 99.4% | Activity (SNB-19): 103.82% | Activity (SNB-75): 90.57% | Activity (U-251): 99.74% | Activity (LOX IMVI): 96.03% | Activity (Malme-3M): 102.79% | Activity (M14): 98.8% | Activity (MDA-MB-435): 107.3% | Activity (SK-MEL-5): 101.5% | Activity (UACC-62): 103.68% | Activity (OVCAR-4): 110.06% | Activity (OVCAR-5): 112.65% | Activity (SK-OV-3): 103.42% | Activity (786-0): 103.02% | Activity (RXF 393): 105.33% | Activity (TK-10): 97.92% | Activity (PC-3): 91.84% | Activity (MDA-MB-231): 100.41% | Ratio [5]: 2 | Ratio (Staphylococcus aureus): 2

CC(=O)c1sc(/N=C2\NC(=O)/C(=C3/C(=O)N(C)c4ccc(Cl)cc43)S2)nc1C
inhibition (INH) [1]: 76.35% | MIC [1]: 0.39 µg/mL (≈ 0.901 µM) | diameter of the inhibition zone (DIZ) (Escherichia coli [2]): 25.1 mm | MIC (Escherichia coli [3]): 0.49 µg/mL (≈ 1.13 µM) | diameter of the inhibition zone (DIZ) (Aspergillus fumigatus): 22.2 mm | MIC (Candida albicans): 0.49 µg/mL (≈ 1.13 µM) | IC50 (WI-38): 19.5 µg/mL (≈ 45 µM) | selectivity ratio [4]: 50 | Activity (HL-60(TB)): 98.79% | Activity (RPMI-8226): 110.22% | Activity (EKVX): 95.78% | Activity (HOP-92): 95.24% | Activity (NCI-H226): 94.2% | Activity (COLO 205): 108.28% | Activity (HCC 2998): 112.5% | Activity (HCT-15): 101.97% | Activity (SF-268): 98.04% | Activity (SF-539): 94.05% | Activity (SNB-19): 98.6% | Activity (SNB-75): 104.77% | Activity (U-251): 113.76% | Activity (LOX IMVI): 88.14% | Activity (Malme-3M): 85.96% | Activity (M14): 100.08% | Activity (MDA-MB-435): 101.04% | Activity (SK-MEL-5): 97.1% | Activity (UACC-62): 84.61% | Activity (OVCAR-4): 94.35% | Activity (OVCAR-5): 104.59% | Activity (SK-OV-3): 117.19% | Activity (786-0): 106.86% | Activity (RXF 393): 106.08% | Activity (TK-10): 118.37% | Activity (PC-3): 96.23% | Activity (MDA-MB-231): 91.15% | Ratio [5]: 2 | Ratio (Staphylococcus aureus): 2

From ChEMBL document CHEMBL4308854, “Novel indole-thiazolidinone conjugates: Design, synthesis and whole-cell phenotypic evaluation as a novel class of antimicrobial agents” (Eur J Med Chem, 2018)
